Reference: patent US20260216215A1, “COMPOSITIONS AND METHODS FOR TREATING OR PREVENTING PAIN OR OTHER DISORDERS” (priority 2022, published 2026)

Assays:
[1] = system: menstrual pain; experiment: Comparison of VAS scores for CBD only, CBG only, PEA only and combination vaginal suppositories (Example 2); assay type: in vivo, human; details: vaginal suppository; for Magnitude of pain reduction from baseline: VAS points
Text: Specifically, the formulations were individually/separately administered, with each single formulation being administered on a separate day of the patient's menstrual period.
Comparison of visual analogue pain scores (VAS scores) for CBD only, CBG only, PEA only and CBD+CBG+PEA combinations delivered using vaginal suppositories.

[2] = system: neuropathic pain; details: purified compound; thermal and mechanical hyperalgesia and mechanical allodynia; cited from earlier work
[3] = system: inflammation in experimental rat model; details: versus Diclofenac (100 mg/kg), p<0.05; cited from earlier work
[4] = cited from earlier work
[5] = system: chemical nociception; details: not blocked by naloxone; cited from earlier work

Compound | Magnitude of pain reduction from baseline [1] | Duration of effect [1] [h] | Onset of effect [1] [min] | VAS at max effect [1] | also measured
C=C(C)[C@@H]1CCC(C)=C[C@H]1c1c(O)cc(CCCCC)cc1O [CBD 50 mg, Cannabidiol] | 2 | 5 | 20 | 5 | Relief of neuropathic pain [2]: partially relieve neuropathic pain
CCCCCc1cc(O)c(C/C=C(\C)CCC=C(C)C)c(O)c1 [CBG 50 mg, Cannabigerol] | 0 |  |  | 8 | 
COc1cc(CNC(=O)CCCC/C=C/C(C)C)ccc1O [CPF, capsaicin] |  |  |  |  | Anti-inflammatory effects [3]: comparable to diclofenac
CCCCCCCCCCCCCCCC(=O)NCCO [PEA 250 mg, N-Palmitoylethanolamide] | 2 | 6 | 30 | 5 | 
CC(C)=C1CC[C@@H](C)CC1=O [PUL, (R)-5-Methyl-2-(1-methylethylidine) cyclohexanone] |  |  |  |  | Miscibility with organic solvents ([4]; ethanol, diethyl ether and chloroform): miscible; Solubility in water ([4]; water): practically insolubile; Chemical nociception in first and second phase of the formalin test [5]: significantly inhibited
